Reference: ChEMBL document CHEMBL1146315, “Synthesis and evaluation of unsaturated caprolactams as interleukin-1beta converting enzyme (ICE) inhibitors” (Bioorg Med Chem, 2007)

Columns and labels:
[1] = system: THP-1; assay: Inhibition of IL1-beta production in THP1 cells; type: functional, cell-based; details: Homo sapiens
[2] = biological target: Caspase-8 (Homo sapiens, UniProt Q14790); assay: Inhibition of caspase 8
[3] = biological target: T1, Caspase-1 (Homo sapiens, UniProt P29466); assay: Inhibition of ICE
T1 sequence (P29466 whole entry): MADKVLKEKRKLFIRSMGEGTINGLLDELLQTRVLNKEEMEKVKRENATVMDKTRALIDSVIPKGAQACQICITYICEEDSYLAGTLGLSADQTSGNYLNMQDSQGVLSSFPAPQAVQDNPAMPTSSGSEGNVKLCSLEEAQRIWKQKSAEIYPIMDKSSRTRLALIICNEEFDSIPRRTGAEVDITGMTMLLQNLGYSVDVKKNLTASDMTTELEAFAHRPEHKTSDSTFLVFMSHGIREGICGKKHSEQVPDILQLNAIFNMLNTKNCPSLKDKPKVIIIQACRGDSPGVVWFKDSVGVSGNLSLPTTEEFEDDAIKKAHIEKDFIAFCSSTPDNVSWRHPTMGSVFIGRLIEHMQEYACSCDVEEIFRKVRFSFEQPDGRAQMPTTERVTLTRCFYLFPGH

[4] = biological target: T2, Caspase-3 (Homo sapiens, UniProt P42574); assay: Inhibition of caspase 3
T2 sequence (P42574 whole entry): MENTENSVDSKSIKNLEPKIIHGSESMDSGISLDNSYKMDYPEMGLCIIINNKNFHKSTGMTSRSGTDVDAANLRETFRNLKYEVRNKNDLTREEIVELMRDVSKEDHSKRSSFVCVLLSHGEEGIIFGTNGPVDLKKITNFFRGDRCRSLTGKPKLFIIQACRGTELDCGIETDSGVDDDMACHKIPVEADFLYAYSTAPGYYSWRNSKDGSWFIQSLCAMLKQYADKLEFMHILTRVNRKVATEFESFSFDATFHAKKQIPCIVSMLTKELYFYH

[5] = Half life in Sprague-Dawley rat at 30 mg/kg, po; type: ADME, organism-based; set-up: dose 30 mg/kg, route oral; details: in vivo
[6] = (§1) Bioavailability in Sprague-Dawley rat at 30 mg/kg, po; type: ADME, organism-based; details: Sprague-Dawley, in vivo
[7] = Cmax in Sprague-Dawley rat at 30 mg/kg, po; type: ADME, organism-based; set-up: dose 30 mg/kg, route oral; details: in vivo
[8] = (§2) AUC (0 to infinity) in Sprague-Dawley rat at 30 mg/kg, po; type: ADME, organism-based, Plasma; set-up: time infinity, dose 30 mg/kg, route oral; details: Sprague-Dawley, plasma
[9] = system: Rattus norvegicus; assay: AUC (0 to infinity) in Sprague-Dawley rat at 30 mg/kg, iv; type: ADME, organism-based, Plasma; set-up: time infinity, dose 30 mg/kg, route intravenous; details: in vivo
[10] = system: Rattus norvegicus; assay: as §1; type: ADME, organism-based; details: in vivo
[11] = Cmax in Sprague-Dawley rat at 30 mg/kg, iv; type: ADME, organism-based; set-up: dose 30 mg/kg, route intravenous; details: in vivo
[12] = Half life in Sprague-Dawley rat at 30 mg/kg, iv; type: ADME, organism-based; set-up: dose 30 mg/kg, route intravenous; details: in vivo
[13] = system: Rattus norvegicus; assay: as §2; type: ADME, organism-based, Plasma; set-up: time infinity, dose 30 mg/kg, route oral; details: in vivo

Chain of Caspase-8 (Q14790 217-374 limits assumed): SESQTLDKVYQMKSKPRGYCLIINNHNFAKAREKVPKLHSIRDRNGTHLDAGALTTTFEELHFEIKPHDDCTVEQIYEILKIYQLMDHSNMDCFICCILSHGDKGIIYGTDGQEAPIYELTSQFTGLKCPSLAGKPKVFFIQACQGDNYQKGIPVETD
Chain of Caspase-8 (Q14790 385-479 limits assumed): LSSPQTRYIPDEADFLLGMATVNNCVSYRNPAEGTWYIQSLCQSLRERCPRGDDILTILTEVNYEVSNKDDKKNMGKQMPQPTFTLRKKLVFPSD

Row | IC50 [1] | IC50 [2] | IC50 [3] | IC50 [4] | Structure (SMILES) | also measured
1 | 1080 nM | 4200 nM | 168 nM | > 10 µM | O=C(CN1CC=CC[C@H](NC(=O)c2ccccc2)C1=O)N[C@H]1CC(=O)OC1O (some centres undefined) | 
2 | 712 nM | 1450 nM | 20 nM | > 10 µM | O=C(CN1CC=CC[C@H](NC(=O)c2cc3ccccc3s2)C1=O)N[C@H]1CC(=O)OC1O (some centres undefined) | 
3 | 243 nM | 448 nM | 1 nM | 1.08 µM | COc1cccc(C(=O)NCC2=CC[C@H](NC(=O)c3ccc4ccccc4c3)C(=O)N(CC(=O)N[C@H]3CC(=O)OC3O)C2)c1 (some centres undefined) | 
4 | 188 nM |  | 4 nM |  | O=C[C@H](CC(=O)O)NC(=O)[C@@H]1CC[C@@H]2C/C=C\C[C@H](NC(=O)c3nccc4ccccc34)C(=O)N21 | 
5 |  |  | 77 nM |  | O=C(CN1CC/C=C\C[C@H](NC(=O)c2nccc3ccccc23)C1=O)N[C@H]1CC(=O)OC1O (some centres undefined) | 
6 | 383 nM | 1180 nM | 29 nM | > 10 µM | O=C(CN1CC=CC[C@H](NC(=O)c2cccc(Cl)c2)C1=O)N[C@H]1CC(=O)OC1O (some centres undefined) | 
7 |  |  |  |  | CCOC1OC(=O)C[C@@H]1NC(=O)CN1CC=CC[C@H](NC(=O)c2ccc3ccccc3c2)C1=O (some centres undefined) | half-life [5]: 204 min; bioavailability [6]: > 90%; Cmax [7]: 9360 ng/mL; AUC(0-inf) [8]: 21000 ng·h/mL
8 | 466 nM | 1080 nM | 2 nM | 1.7 µM | O=C(CN1CC(CNC(=O)c2ccccc2)=CC[C@H](NC(=O)c2ccc3ccccc3c2)C1=O)N[C@H]1CC(=O)OC1O (some centres undefined) | 
9 | 36 nM | 162 nM | 1 nM | 7.51 µM | C[C@@H](C(=O)N[C@H]1CC(=O)OC1O)N1CC=CC[C@H](NC(=O)c2ccc3ccccc3c2)C1=O (some centres undefined) | 
10 | 554 nM | 1960 nM | 11 nM | > 10 µM | O=C(CN1CC=CC[C@H](NC(=O)c2cccc(C(F)(F)F)c2)C1=O)N[C@H]1CC(=O)OC1O (some centres undefined) | 
11 | 100 nM | 2160 nM | 14 nM | > 10 µM | O=C(CN1CC=CC[C@H](NC(=O)c2ccc3ccccc3c2)C1=O)N[C@H]1CC(=O)OC1O (some centres undefined) | half-life [5]: 78 min; AUC [9]: 1970 ng·h/mL; F [10]: 2%; Cmax [11]: 6790 ng/mL; half-life [12]: 12 min; Cmax [7]: 264 ng/mL; AUC [13]: 320 ng·h/mL
12 | 1280 nM | 1610 nM | 8 nM | > 10 µM | O=C(CN1CC(CSCc2ccccc2)=CC[C@H](NC(=O)c2ccc3ccccc3c2)C1=O)N[C@H]1CC(=O)OC1O (some centres undefined) | 
13 |  |  | 4 nM |  | O=C[C@H](CC(=O)O)NC(=O)[C@@H]1CCCN2C(=O)CC[C@H](NC(=O)c3nccc4ccccc34)C(=O)N12 [VRT-18858] | 
14 | 232 nM | 10000 nM | 7 nM | > 10 µM | O=C(CN1CC(CNCc2ccccc2)=CC[C@H](NC(=O)c2ccc3ccccc3c2)C1=O)N[C@H]1CC(=O)OC1O (some centres undefined) | 
15 | 326 nM | 109 nM | 3 nM | 6.81 µM | O=C(CN1CC(CNS(=O)(=O)c2ccccc2)=CC[C@H](NC(=O)c2ccc3ccccc3c2)C1=O)N[C@H]1CC(=O)OC1O (some centres undefined) | 
16 | 1340 nM | 887 nM | 2 nM | 3.37 µM | COc1ccccc1C(=O)NCC1=CC[C@H](NC(=O)c2ccc3ccccc3c2)C(=O)N(CC(=O)N[C@H]2CC(=O)OC2O)C1 (some centres undefined) | 
17 | 95 nM | 471 nM | 1 nM | 1.13 µM | COc1ccc(C(=O)NCC2=CC[C@H](NC(=O)c3ccc4ccccc4c3)C(=O)N(CC(=O)N[C@H]3CC(=O)OC3O)C2)cc1 (some centres undefined) | 
18 | 182 nM |  | 3 nM |  | O=C[C@H](CC(=O)O)NC(=O)[C@@H]1COC[C@@H]2C/C=C\C[C@H](NC(=O)c3nccc4ccccc34)C(=O)N21 | 
19 |  |  |  |  | CCOC1OC(=O)C[C@@H]1NC(=O)CN1CC(CNC(=O)c2ccc(OC)cc2)=CC[C@H](NC(=O)c2ccc3ccccc3c2)C1=O (some centres undefined) | half-life [5]: 426 min; Cmax [7]: 9 ng/mL; AUC(0-inf) [8]: 30 ng·h/mL
20 | 1230 nM | 1230 nM | 53 nM | > 10 µM | COc1cccc(C(=O)N[C@H]2CC=CCN(CC(=O)N[C@H]3CC(=O)OC3O)C2=O)c1 (some centres undefined) | 
21 |  |  |  |  | CCOC1OC(=O)C[C@@H]1NC(=O)[C@H](C)N1CC=CC[C@H](NC(=O)c2ccc3ccccc3c2)C1=O (some centres undefined) | half-life [5]: 306 min; Cmax [7]: 720 ng/mL; AUC(0-inf) [8]: 4530 ng·h/mL
22 | 543 nM | 2110 nM | 22 nM | > 10 µM | O=C(CN1CC(CO)=CC[C@H](NC(=O)c2ccc3ccccc3c2)C1=O)N[C@H]1CC(=O)OC1O (some centres undefined) | 
23 | 586 nM | 2930 nM | 27 nM | > 10 µM | O=C(CN1CC=CC[C@H](NC(=O)c2nccc3ccccc23)C1=O)N[C@H]1CC(=O)OC1O (some centres undefined) | 
24 | 153 nM | 2690 nM | 19 nM | > 10 µM | CC1=CC[C@H](NC(=O)c2ccc3ccccc3c2)C(=O)N(CC(=O)N[C@H]2CC(=O)OC2O)C1 (some centres undefined) | 
25 | 71 nM | 554 nM | 15 nM | > 10 µM | O=C(CN1CC=CC[C@H](NC(=O)c2cc(Cl)ccc2Cl)C1=O)N[C@H]1CC(=O)OC1O (some centres undefined) | 
26 | 871 nM | 537 nM | 13 nM | > 10 µM | C[C@H](C(=O)N[C@H]1CC(=O)OC1O)N1CC=CC[C@H](NC(=O)c2ccc3ccccc3c2)C1=O (some centres undefined) | 
